Reference: ChEMBL document CHEMBL1128236, “Highly kappa receptor-selective dynorphin A analogues with modifications in position 3 of dynorphin A(1-11)-NH2” (J Med Chem, 1995)

Tests used:
[1] = biological target: Mu-type opioid receptor (Cavia porcellus, UniProt P97266); assay: Binding affinity towards Opioid receptor mu 1 in guinea pig brain using [3H]DAMGO as radioligand.
[2] = species: Cavia porcellus; assay: Ability to inhibit the electrically evoked contraction of the guinea pig ileum(GPI) of the Compound was determined; type: functional
[3] = species: Cavia porcellus; assay: Shift in the activity was determined; ns= no significant shift observed with 1000 nM CTAP used as a mu antagonist; type: functional
[4] = biological target: Kappa-type opioid receptor (Cavia porcellus, UniProt P41144); assay: Binding affinity towards Opioid receptor kappa 1 in guinea pig brain using [3H]U-69593 as radioligand.
[5] = Compound was evaluated for its receptor binding affinity at [3H]cyclo[D-pen2,p-cl-Phe4,D-Pen5](delta receptor) to opioid receptor in guinea pig brain

Chain of Mu-type opioid receptor (P97266 whole entry): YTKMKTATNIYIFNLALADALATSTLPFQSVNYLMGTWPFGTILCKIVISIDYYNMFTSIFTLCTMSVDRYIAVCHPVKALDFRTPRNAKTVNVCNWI
Chain of Kappa-type opioid receptor (P41144 whole entry): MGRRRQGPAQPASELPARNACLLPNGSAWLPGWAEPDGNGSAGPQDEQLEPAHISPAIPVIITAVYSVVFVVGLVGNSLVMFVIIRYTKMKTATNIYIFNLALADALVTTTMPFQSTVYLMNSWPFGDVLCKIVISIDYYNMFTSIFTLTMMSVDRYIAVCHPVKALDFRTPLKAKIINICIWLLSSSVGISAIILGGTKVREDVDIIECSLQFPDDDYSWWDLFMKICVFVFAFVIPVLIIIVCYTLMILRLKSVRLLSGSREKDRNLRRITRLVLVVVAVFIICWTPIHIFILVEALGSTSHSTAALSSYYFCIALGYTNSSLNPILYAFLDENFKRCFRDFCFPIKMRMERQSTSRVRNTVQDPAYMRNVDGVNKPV

| Structure (SMILES) | IC50 [1] | IC50 [2] | IC50 [3] | IC50 [4] | IC50 [5] |
| --- | --- | --- | --- | --- | --- |
| CC[C@H](C)[C@H](NC(=O)[C@H](CCCN=C(N)N)NC(=O)[C@H](CCCN=C(N)N)NC(=O)[C@H](CC(C)C)NC(=O)[C@H](Cc1ccccc1)NC(=O)[C@H](C)NC(=O)CNC(=O)[C@@H](N)Cc1ccc(O)cc1)C(=O)N[C@@H](CCCN=C(N)N)C(=O)N1CCC[C@H]1C(=O)N[C@@H](CCCCN)C(N)=O | 210 nM | 1.7 nM | Not Active | 1.1 nM | – |
| CC[C@H](C)[C@H](NC(=O)[C@H](CCCNC(=N)N)NC(=O)[C@H](CCCNC(=N)N)NC(=O)[C@H](CC(C)C)NC(=O)[C@H](Cc1ccccc1)NC(=O)CNC(=O)CNC(=O)[C@@H](N)Cc1ccc(O)cc1)C(=O)N[C@@H](CCCNC(=N)N)C(=O)N1CCC[C@H]1C(=O)N[C@@H](CCCCN)C(N)=O | – | – | Not Active | – | 25.5 nM |
| CC[C@H](C)[C@H](NC(=O)[C@H](CCCN=C(N)N)NC(=O)[C@H](CCCN=C(N)N)NC(=O)[C@H](CC(C)C)NC(=O)[C@H](Cc1ccccc1)NC(=O)[C@@H](C)NC(=O)CNC(=O)[C@@H](N)Cc1ccc(O)cc1)C(=O)N[C@@H](CCCN=C(N)N)C(=O)N1CCC[C@H]1C(=O)N[C@@H](CCCCN)C(N)=O | 260 nM | 8.1 nM | Not Active | 0.76 nM | – |
